The test system of this series is PC-3 xenograft. As to the kind of experiment: In vivo efficacy in PC-3 xenograft, male Balb/c nude mice (Example 3). The arrangement: species or system Mus Musculus. As to the method: The objective of the research is to evaluate the in vivo anti-tumor efficacy of test articles in treatment of PC-3 xenograft in Balb/c nude mice.
The tumor cells were maintained in F-12K medium supplemented with 10% heat inactivated fetal bovine serum at 37° C. in an atmosphere of 5% CO2 in air. The tumor cells were routinely subcultured twice weekly. The cells growing in an exponential growth phase were harvested and counted for tumor inoculation.
Each mouse was inoculated subcutaneously at the right flank with PC-3 tumor cells (10×10^6) in 0.2 ml of PBS for tumor development. 52 animals were randomized when the average tumor volume reached 454 mm^3. The test article administration and the animal numbers in each group were shown in the experimental design table.
The major endpoint was to see if the tumor growth could be delayed or mice could be cured. Tumor volume was measured three times weekly in two dimensions using a caliper, and the volume was expressed in mm3 using the formula: V=0.5 a×b^2 where a and b are the long and short diameters of the tumor, respectively. The tumor size was then used for calculations of T/C value. The T/C value (in percent) is an indication of antitumor effectiveness; T and C are the mean volumes of the treated and control groups, respectively, on a given day.
TGI was calculated for each group using the formula: TGI (%)=[1−(Ti−T0)/(Vi−V0)]×100; Ti is the average tumor volume of a treatment group on a given day, T0 is the average tumor volume of the treatment group on the day of treatment start, Vi is the average tumor volume of the vehicle control group on the same day with Ti, and V0 is the average tumor volume of the vehicle group on the day of treatment start.
Tumor growth inhibition rate for test articles in the PC-3 xenograft model was calculated based on tumor volume measurements at day 20 after the start of the treatment.

[1] abbreviates: 15 mpk i.v. qw (treatment suspended after the first dosing), day 20.

Where “and” joins values, the source holds several entries; their conditions need not be identical. Identical values can stand only once.

For the compound `CC(=O)O[C@@]12CO[C@@H]1C[C@H](O)[C@@]1(C)C(=O)[C@H](O)C3=C(C)[C@@H](OC(=O)[C@H](O)[C@@H](NC(=O)OC(C)(C)C)c4ccccc4)C[C@@](O)([C@@H](OC(=O)c4ccccc4)[C@H]21)C3(C)C` [Docetaxel, reference compound], the “tumor relapse after ceasing the treatment” value (15 mg/kg qw) is on record as “obvious tumor relapse”. In addition, for the setting “15 mg/kg qw, after the first dosing”, the “animal body weight loss” value was “severe animal body weight loss”. The Tumor volume runs as follows: (15 mpk i.v. qw (treatment suspended after the first dosing), day 0) 453 mm^3; (15 mpk i.v. qw (treatment suspended after the first dosing), day 2) 584 mm^3; (15 mpk i.v. qw (treatment suspended after the first dosing), day 4) 632 mm^3; (15 mpk i.v. qw (treatment suspended after the first dosing), day 6) 636 mm^3; (15 mpk i.v. qw (treatment suspended after the first dosing), day 8) 568 mm^3; (15 mpk i.v. qw (treatment suspended after the first dosing), day 10) 408 mm^3. For the same compound, the Tumor volume runs as follows: (15 mpk i.v. qw (treatment suspended after the first dosing), day 13) 374 mm^3; (15 mpk i.v. qw (treatment suspended after the first dosing), day 15) 388 mm^3; (15 mpk i.v. qw (treatment suspended after the first dosing), day 17) 361 mm^3; under setting [1], 419 mm^3 and 419 ± 31 mm^3. Under setting [1], the T/C – broadly, the ratio of treated to control – turned out to be 17.7%. Moreover, the TGI under setting [1] is given as 101.8%.

The record behind these values is US20220184222A1, “BICYCLE TOXIN CONJUGATES AND USES THEREOF” (BicycleTx Limited, priority 2019, published 2022).
